In patent US7026328B2, “Heterocyclic compounds which inhibit leukocyte adhesion mediated by α4 integrins” (Elan Pharmaceuticals, Inc., priority 2002, dated 2006):

Assays:
[1] = Cassette Dosing and Serum Analysis for Determination of Bioavailability; format: in vivo, rat; settings: average AUC 0→12 h, male Sprague Dawley rats, single oral cassette dose (6 compounds, total dose 10 mg/kg), plasma
Description: The cassette included 5 test articles and a standard compound, for a total dose of 10 mg/kg. Each compound/test article was converted to the sodium salt with equimolar 1 N NaOH and dissolved in water at 2 mg/mL. The cassette was prepared by mixing equal volumes of each of the six solutions. The cassette dosing solution was mixed well and then the pH was adjusted to 7.5–9. The dosing solution was prepared the day before the study and stirred overnight at room temperature.
Male Sprague Dawley (SD) rats from Charles River Laboratories, 6–8 weeks old were used in this screen. Rats were quarantined for at least one day and had continuous access to food and water. On the night before the administration of the cassette, the rats were fasted for approximately 16 h.
Four SD rats were assigned in each cassette. A single dose of the dosing solution was administered orally to each rat. The dosing volume (5 mL/kg) and time were recorded and rats were fed 2 h after dosing.
Blood samples were collected via cardiac puncture at the following time points: 4 h, 8 h and 12 h. Immediately prior to blood collection, rats were anesthetized with CO2 gas within 10–20 seconds. After the 12-h samples were collected, the rats were euthanized via CO2 asphyxiation followed by cervical dislocation.
Blood samples were kept in heparinized microtainer tubes under sub-ambient temperature (4° C.) before they were processed. Blood samples were centrifuged (10000 rpm for 5 minutes) and plasma samples were removed and stored in a −20° C. freezer until analyzed for drug levels. Drug levels in the plasma were analyzed using the following protocol for direct plasma precipitation.
The in vivo plasma samples were prepared in a 1.5 mL 96-well plate, by adding, in order, 100 μL of the test plasma, 150 μL of methanol, followed by vortexing for 10–20 seconds. 150 μL of 0.05 ng/μL of an Internal Standard in acetonitrile were added and vortexed for 30 seconds.
The standard curve samples were prepared in a 1.5 mL 96-well plate, by adding, in order, 100 μL of control mouse plasma, followed by 150 μL of methanol and vortexing for 10–20 seconds. 150 μL of 0.05 ng/μL of an Internal Standard in acetonitrile were added and vortexed for 30 seconds. The samples were spiked with 0–200 ng (10 concentrations) of the compound of interest in 50% methanol to obtain a standard curve range of 0.5 ng/mL–2,000 ng/mL. Again, the sample was vortexed for 30 seconds.
The samples were then spun for 20–30 minutes at 3000 rpm in an Eppendorf microfuge before 80–90% of supernatant was transferred into a clean 96-well plate. The organic solvent was then evaporated until the samples were dry (under N2 at 40° C./30–60 min (Zymark Turbovap)).
The residue was then dissolved in […] mobile phase (50% CH3OH/0.1% TFA). LC/MS/MS was then run using a PE-Sciex API-3000 triple quadurpole mass spectrometer (SN0749707), Perkin-Elmer, Series200auto-sampler, and shimadzu 10A pump. Acquisition was done with PE-Sciex Analyst (v1.1) and data analysis and quantification were accomplished using PE-Sciex Analyst (v1.1). A 5–50 μL sample volume was injected onto a reverse phase ThermoHypersil DASH-18 column (Keystone 2.0×20 mm, 5 μm, PN: 8823025-701) using a mobile phase of 25% CH3OH, 0.1% TFA-100% CH3OH, 0.1% TFA. The run time was about 8 minutes at a flow rate of about 300 μL/minutes.
The Area Under the Curve (AUC) was calculated using the linear trapezoidal rule from t=0 to the last sampling time tx (see Handbook of Basic Pharmacokinetics, Wolfgang A. Ritschel and Gregory L. Kearns, 5th ed, 1999). AUC^0→tx=S((Cn+Cn+1)/2))·(tn+1−tn)[(μg/mL)h]

α4β1 integrin = molecular target: T1, α4β1 integrin (Homo sapiens, UniProt P05556+P13612); experiment: α4β1 Integrin Adhesion Assay: Jurkat Cell Adhesion to Human Plasma Fibronectin; format: cell-based; settings: Jurkat cells
T1 construct: Jurkat™ cells (maintained in log phase growth) were labeled with Calcein AM; endogenous in cells; host or cells: Jurkat cells
Description: 96 well plates (Costar 3590 EIA plates) were coated with human fibronectin (Gibco/BRL, cat #33016–023) at a concentration of 10 μg/mL overnight at 4° C. The plates were then blocked with a solution of bovine serum albumin (BSA; 0.3%) in saline. Jurkat™ cells (maintained in log phase growth) were labeled with Calcein AM according to the manufacturer's instructions, and suspended at a concentration of 2×10^6 cells/mL in Hepes/Saline/BSA. The cells were then exposed to test and control compounds for 30 minutes at room temperature before transfer to individual wells of the fibronectin coated plate. Adhesion was allowed to occur for 35 minutes at 37° C. The wells were then washed by gentle aspiration and pipetting with fresh saline. Fluorescence associated with the remaining adherent cells was quantified using a fluorescence plate reader at EX 485/EM 530.
Cell cultures were prepared by first splitting the stationary phase Jurkat™ cells at 1:10 on day one, and 1:2 on day two to perform assay on day 3. The cells split 1:10 on day one were split 1:4 on day 3 for a day 4 assay.
The assay plates were prepared by first making a working solution of Gibco/BRL Human Fibronectin (cat #33016-023) in PBS++, at 10 μg/mL. A Costar 3590 EIA plate was then coated with 50 μL/well for 2 hours at room temperature (thought it can also be left overnight at 4° C.). Finally the plate was asperated and blocked with Hepes/Saline Buffer, 100 μL/well, for 1 hour at RT followed by washing 3× with 150 μL of PBS++.
Compound dilutions were accomplished by preparing 1:3 serial dilutions of compounds as follows. For each plate (4 compounds/plate) 600 μL were added to 4 Bio-Rad Titertubes in a Titertube rack. […] Using Falcon Flexiplates, 100 μL of Hepes/Saline buffer or human serum were added to rows B through G. A multi-channel pipetter set to 180 μL was used to with four tips spaced evenly the pipetter. Each set of four tubes was mixed 5 times and 180 μL of 2× compound was transferred to the first column of each compound dilution in Row B, leaving Row A empty. 180 μL were added to the other wells in Row A. Serial dilutions were performed down the plate by transferring 50 μL to the next dilution and mixing 5 times, changing tips each time after mixing.
A 20 μg/mL solution in Hepes/Saline buffer or human serum, of 21/6 antibody was the positive control and was set aside in a reagent trough to add to cell suspension plate.
The cell staining was accomplished by first harvesting the log-phase Jurkat™ cells by centrifugation in 50 mL tubes (1100 rpm for 5 minutes). The cells were resuspended in 50 mL PBS++, spun, and resuspend in 20 mL PBS++. The cells were stained by adding 20 μL of Calcein AM for 30 minutes RT. The volume was brought to 50 mL with Hepes/Saline buffer and the cells were counted, spun, and resuspend to 2×10^6 cells/mL in Hepes/Saline buffer or human serum.
The compounds were incubated using the following procedure. In a new flexiplate, 65 μL of stained cells were added to Rows B through H. Then 65 μL of 2× compounds were added to the appropriate rows following the plate setup and mixed three times. 65 μL of 2×-21/6 antibody were added to Row H and mixed 3×. Finally the plate was incubated at room temperature for 30 minutes.
Fibronectin adhesion was measured using a fluorescent plate reader at EX 485/EM 530 after the following work up procedure. After incubation, the cells were mixed three times and 100 μL were transfered to the Fibronectin coated plates and incubated at 37° C. for about 35 minutes. Each plate was washed, row by row, by gently pipetting 100 μL of RT. PBS++ down the sides of the wells and turning the plate 90 degrees to aspirate. This procedure was repeated for a total of 3 washes. Each well was filled with 100 μL after washing by pipetting down the side of the well.
An IC50 value was calculated for each compound, both in the presence of the human serum and in the absence of human serum.

T1 sequence (P13612 34-1032): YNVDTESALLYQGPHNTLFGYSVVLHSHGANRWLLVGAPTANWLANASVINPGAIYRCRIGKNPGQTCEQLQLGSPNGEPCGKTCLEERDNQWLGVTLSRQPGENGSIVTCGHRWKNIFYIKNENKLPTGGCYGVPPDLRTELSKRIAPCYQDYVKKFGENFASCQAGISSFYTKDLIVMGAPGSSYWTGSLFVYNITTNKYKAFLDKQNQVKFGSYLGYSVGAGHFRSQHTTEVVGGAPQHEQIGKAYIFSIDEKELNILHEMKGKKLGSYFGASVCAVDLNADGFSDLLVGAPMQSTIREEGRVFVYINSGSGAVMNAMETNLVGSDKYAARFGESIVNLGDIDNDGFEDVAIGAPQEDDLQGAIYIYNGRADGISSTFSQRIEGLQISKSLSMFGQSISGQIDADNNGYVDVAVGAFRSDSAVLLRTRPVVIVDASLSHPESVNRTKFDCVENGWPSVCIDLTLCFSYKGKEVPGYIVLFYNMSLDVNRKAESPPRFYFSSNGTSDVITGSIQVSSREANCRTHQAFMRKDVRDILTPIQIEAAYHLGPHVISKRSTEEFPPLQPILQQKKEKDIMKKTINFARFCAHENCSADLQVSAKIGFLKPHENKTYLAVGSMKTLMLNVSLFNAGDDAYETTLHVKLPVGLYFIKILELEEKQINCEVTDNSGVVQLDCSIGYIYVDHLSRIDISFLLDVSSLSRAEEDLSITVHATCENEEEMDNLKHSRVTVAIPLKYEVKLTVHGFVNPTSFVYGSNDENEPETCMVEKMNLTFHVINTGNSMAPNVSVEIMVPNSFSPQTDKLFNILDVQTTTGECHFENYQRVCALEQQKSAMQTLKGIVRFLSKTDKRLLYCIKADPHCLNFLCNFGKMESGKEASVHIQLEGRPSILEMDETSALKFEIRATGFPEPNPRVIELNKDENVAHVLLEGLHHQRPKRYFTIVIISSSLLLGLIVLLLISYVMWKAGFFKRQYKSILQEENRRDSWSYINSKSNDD
T1 sequence (P05556 21-798): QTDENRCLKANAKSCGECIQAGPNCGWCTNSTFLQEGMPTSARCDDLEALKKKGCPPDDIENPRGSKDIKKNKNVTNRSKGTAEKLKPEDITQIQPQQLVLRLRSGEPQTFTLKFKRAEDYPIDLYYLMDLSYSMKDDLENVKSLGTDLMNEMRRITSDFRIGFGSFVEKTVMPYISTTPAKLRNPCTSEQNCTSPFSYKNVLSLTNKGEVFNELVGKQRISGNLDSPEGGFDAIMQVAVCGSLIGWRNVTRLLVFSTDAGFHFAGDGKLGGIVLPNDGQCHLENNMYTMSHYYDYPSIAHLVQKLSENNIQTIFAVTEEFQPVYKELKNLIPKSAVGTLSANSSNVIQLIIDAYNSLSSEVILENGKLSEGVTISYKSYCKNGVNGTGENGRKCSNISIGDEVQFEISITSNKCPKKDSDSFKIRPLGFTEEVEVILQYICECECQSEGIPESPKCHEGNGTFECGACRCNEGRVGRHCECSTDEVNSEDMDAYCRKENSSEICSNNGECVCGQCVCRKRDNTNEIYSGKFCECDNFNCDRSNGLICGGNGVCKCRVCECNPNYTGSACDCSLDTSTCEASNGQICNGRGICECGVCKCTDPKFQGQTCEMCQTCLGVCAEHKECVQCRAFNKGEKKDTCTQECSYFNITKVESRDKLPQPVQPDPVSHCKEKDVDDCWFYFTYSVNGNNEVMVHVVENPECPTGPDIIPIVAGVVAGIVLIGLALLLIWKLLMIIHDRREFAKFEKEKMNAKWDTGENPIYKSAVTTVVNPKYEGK

Compound	AUC [1]	IC50 (α4β1 integrin; containing human serum)	IC50 (α4β1 integrin; without the human serum)
CCN(CC)c1ncc(N(C)S(=O)(=O)c2ccc(F)cc2F)c(N[C@@H](Cc2ccc(OC(=O)N3CCCC3)cc2)C(=O)O)n1 [Example 11, N-(2-[N′,N′-diethylamino]-5-[N″-(2,4-difluorophenylsulfonyl)-N″-methylamino]pyrimidin-4-yl)-4′-(pyrrolidin-1-ylcarbonyloxy)-L-phenylalanine]	14.818 (μg/mL)h	483 nM	8.37 nM
CCN(CC)c1ncc(N(CC)S(=O)(=O)c2ccc(F)cc2F)c(N[C@@H](Cc2ccc(OC(=O)N3CCCC3)cc2)C(=O)O)n1 [Example 12, N-(2-[N′,N′-diethylamino]-5-[N″-(2,4-difluorophenylsulfonyl)-N″-ethylamino]pyrimidin-4-yl)-4′-(pyrrolidin-1-ylcarbonyloxy)-L-phenylalanine]	4.7816 (μg/mL)h	227 nM	8.71 nM
CCN(CC)c1ncc(N(C)S(=O)(=O)c2ccc(F)cc2F)c(N[C@@H](Cc2ccc(OC(=O)N3CCC3)cc2)C(=O)O)n1 [Example 13, N-(2-[N′,N′-diethylamino]-5-[N″-(2,4-difluorophenylsulfonyl)-N″-methylamino]pyrimidin-4-yl)-4′-(azetidin-1-ylcarbonyloxy)-L-phenylalanine]	1.283 (μg/mL)h	89.5 nM	2.45 nM
CCN(CC)c1ncc(N(CC)S(=O)(=O)c2ccc(F)cc2F)c(N[C@@H](Cc2ccc(OC(=O)N3CCC3)cc2)C(=O)O)n1 [Example 14, N-(2-[N′,N′-diethylamino]-5-[N″-(2,4-difluorophenylsulfonyl)-N″-ethylamino]pyrimidin-4-yl)-4′-(azetidin-1-ylcarbonyloxy)-L-phenylalanine]	0.3566 (μg/mL)h	51.5 nM	3.39 nM
C#CCN(c1cnc(N(CC)CC)nc1N[C@@H](Cc1ccc(OC(=O)N2CCCC2)cc1)C(=O)O)S(=O)(=O)c1ccc(F)cc1F [Example 16, N-(2-[N′,N′-diethylamino]-5-[N″-(2,4-difluorophenylsulfonyl)-N″-propargylamino]pyrimidin-4-yl)-4′-(pyrrolidin-1-ylcarbonyloxy)-L-phenylalanine]	23.808 (μg/mL)h	565 nM	13.7 nM
C#CCN(c1cnc(N(CC)CC)nc1N[C@@H](Cc1ccc(OC(=O)N2CCC2)cc1)C(=O)O)S(=O)(=O)c1ccc(F)cc1F [Example 17, N-(2-[N′,N′-diethylamino]-5-[N″-(2,4-difluorophenylsulfonyl)-N″-propargylamino]pyrimidin-4-yl)-4′-(azetidin-1-ylcarbonyloxy)-L-phenylalanine]	0.8628 (μg/mL)h	125 nM	5.24 nM
C#CCN(c1cnc(N(CC)CC)nc1N[C@@H](Cc1ccc(OC(=O)N2CCC2)cc1)C(=O)O)S(=O)(=O)c1ccc(F)cc1 [Example 18, N-(2-[N′,N′-diethylamino]-5-[N″-(4-fluorophenylsulfonyl)-N″-propargylamino]pyrimidin-4-yl)-4′-(azetidin-1-ylcarbonyloxy)-L-phenylalanine]	4.7528 (μg/mL)h	480 nM	5.86 nM
